# Key:
# Staphylococcus aureus [1] = assay: Antibacterial activity against constitutively macrolide/lincosamide/streptogramin B-resistant Staphylococcus aureus by agar microdilution method; format: functional
# Streptococcus pyogenes [2] = assay: Antibacterial activity against erythromycin susceptible Streptococcus pyogenes by agar microdilution method; format: functional
# Streptococcus pyogenes [3] = assay: Antibacterial activity against constitutively macrolide/lincosamide/streptogramin B-resistant Streptococcus pyogenes by agar microdilution method; format: functional
# Staphylococcus aureus [4] = assay: Antibacterial activity against erythromycin susceptible Staphylococcus aureus by agar microdilution method; format: functional
# Streptococcus pneumoniae [5] = assay: Antibacterial activity against Mef-mediated macrolide efflux resistant Streptococcus pneumoniae by agar microdilution method; format: functional
# Streptococcus pyogenes [6] = assay: Antibacterial activity against Mef-mediated macrolide efflux resistant Streptococcus pyogenes by agar microdilution method; format: functional
# Staphylococcus aureus [7] = assay: Antibacterial activity against inducibly macrolide/lincosamide/streptogramin B-resistant Staphylococcus aureus by agar microdilution method; format: functional
# Streptococcus pneumoniae [8] = assay: Antibacterial activity against constitutively macrolide/lincosamide/streptogramin B-resistant Streptococcus pneumoniae by agar microdilution method; format: functional
# Streptococcus pneumoniae [9] = assay: Antibacterial activity against erythromycin susceptible Streptococcus pneumoniae by agar microdilution method; format: functional
# Haemophilus influenzae = assay: Antibacterial activity against Haemophilus influenzae by agar microdilution method; format: functional
# Plasma = assay: Stability in rat plasma at 1 uM up to 120 mins by LC-MS/MS analysis; format: ADME, cell-free; conditions: 2 h
# Staphylococcus aureus [10] = assay: Potency index, ratio of clarithromycin ED50 to compound ED50 for erythromycin susceptible Staphylococcus aureus infected in mouse; format: functional
# Staphylococcus aureus [11] = assay: Antibacterial activity against erythromycin susceptible Staphylococcus aureus infected in mouse assessed as increase in mouse survival administered orally 1 hr post infection; format: functional; conditions: po
# Streptococcus pneumoniae [12] = assay: Antibacterial activity against erythromycin susceptible Streptococcus pneumoniae infected in mouse assessed as increase in mouse survival administered orally 1 hr post infection; format: functional; conditions: po
# Streptococcus pneumoniae [13] = assay: Potency index, ratio of clarithromycin ED50 to compound ED50 for erythromycin susceptible Streptococcus pneumoniae infected in mouse; format: functional
# [14] = Protein binding in mouse plasma at 1 ug/ml by LC-MS/MS analysis; format: ADME, cell-free; conditions: read-out: PPB (converted)
# Staphylococcus aureus [15] = assay: Ratio of MIC for inducibly macrolide/lincosamide/streptogramin B-resistant Staphylococcus aureus to MIC for erythromycin susceptible Staphylococcus aureus; format: functional
# [16] = Protein binding in rat plasma at 1 ug/ml by LC-MS/MS analysis; format: ADME, cell-free; conditions: read-out: PPB (converted)
# [17] = Metabolic stability in mouse liver microsomes assessed as parent compound remaining at 1 uM after 60 mins in presence of NADP by LC-MS/MS analysis; format: ADME, microsome; conditions: read-out: Stability
# [18] = Protein binding in human plasma at 1 ug/ml by LC-MS/MS analysis; format: ADME, cell-free; conditions: read-out: PPB (converted)
# [19] = Metabolic stability in rat liver microsomes assessed as parent compound remaining at 1 uM after 60 mins in presence of NADP by LC-MS/MS analysis; format: ADME, microsome; conditions: read-out: Stability
# [20] = Metabolic stability in human liver microsomes assessed as parent compound remaining at 1 uM after 60 mins in presence of NADP by LC-MS/MS analysis; format: ADME, microsome; conditions: read-out: Stability
# [21] = AUC(0 to infinity) in Han Wistar rat at 20 mg/kg, po by LC-MS/MS analysis; format: ADME, organism-based; parameters: dose 20 mg/kg, time infinity, route oral; conditions: in vivo
# [22] = Oral bioavailability in Han Wistar rat at 20 mg/kg by LC-MS/MS analysis; format: ADME, organism-based; conditions: in vivo
# [23] = Cmax in Han Wistar rat at 20 mg/kg, po by LC-MS/MS analysis; format: ADME, organism-based; parameters: dose 20 mg/kg, route oral; conditions: in vivo
# [24] = Cmax in Han Wistar rat at 10 mg/kg, iv by LC-MS/MS analysis; format: ADME, organism-based; parameters: dose 10 mg/kg, route intravenous; conditions: in vivo
# [25] = Volume of distribution at steady state in Han Wistar rat at 10 mg/kg, iv by LC-MS/MS analysis; format: ADME, organism-based; conditions: in vivo, read-out: Vdss
# [26] = Fraction unbound in Han Wistar rat plasma at 10 mg/kg, iv by LC-MS/MS analysis; format: ADME, organism-based
# [27] = Clearance in Han Wistar rat at 10 mg/kg, iv by LC-MS/MS analysis; format: ADME, organism-based; conditions: in vivo
# [28] = AUC(0 to infinity) in Han Wistar rat at 10 mg/kg, iv by LC-MS/MS analysis; format: ADME, organism-based; parameters: dose 10 mg/kg, route intravenous, time infinity; conditions: in vivo
# [29] = Tmax in Han Wistar rat at 20 mg/kg, po by LC-MS/MS analysis; format: ADME, organism-based; conditions: in vivo
# [30] = Terminal half life in Han Wistar rat at 10 mg/kg, iv by LC-MS/MS analysis; format: ADME, organism-based; conditions: in vivo, read-out: beta t1/2 (converted)
# Rattus norvegicus = assay: Unbound clearance in Han Wistar rat at 10 mg/kg, iv by LC-MS/MS analysis; format: ADME, organism-based; conditions: in vivo
Compound,MIC (Staphylococcus aureus [1]) [µg/mL],MIC (Streptococcus pyogenes [2]) [µg/mL],MIC (Streptococcus pyogenes [3]) [µg/mL],MIC (Staphylococcus aureus [4]) [µg/mL],MIC (Streptococcus pneumoniae [5]) [µg/mL],MIC (Streptococcus pyogenes [6]) [µg/mL],MIC (Staphylococcus aureus [7]) [µg/mL],MIC (Streptococcus pneumoniae [8]) [µg/mL],MIC (Streptococcus pneumoniae [9]) [µg/mL],MIC (Haemophilus influenzae) [µg/mL],also measured
COC(=O)c1cn(C2CC2)c2cc(N3CCNCC3)c(F)cc2c1=O,> 64,> 64,> 64,> 64,> 64,> 64,> 64,> 64,> 64,16,–
O=C(O)c1cn(C2CC2)c2cc(Cl)c(N3CCNCC3)cc2c1=O,> 64,> 64,> 64,> 64,> 64,> 64,> 64,> 64,> 64,> 64,–
CC[C@H]1OC(=O)[C@H](C)[C@@H](OC(=O)CCNCCNc2cc3c(=O)c(C(=O)O)cn(C4CC4)c3cc2Cl)[C@H](C)[C@@H](O[C@@H]2O[C@H](C)C[C@H](N(C)C)[C@H]2O)[C@](C)(OC/C=C/c2cnc3ccccc3n2)C[C@@H](C)NC(=O)[C@H](C)[C@@H](O)[C@]1(C)O,> 64,≤ 0.125,16,0.5,0.5,1,1,1,≤ 0.125,4,–
C=CCO[C@]1(C)C[C@@H](C)NC(=O)[C@H](C)[C@@H](O)[C@](C)(O)[C@@H](CC)OC(=O)[C@H](C)[C@@H](OC(=O)CCN2CCN(c3cc4c(cc3F)c(=O)c(C(=O)O)cn4C3CC3)CC2)[C@H](C)[C@H]1O[C@@H]1O[C@H](C)C[C@H](N(C)C)[C@H]1O,> 64,0.5,8,0.5,1,0.5,1,4,0.5,4,Stability (Plasma): Stable
CC[C@H]1OC(=O)[C@H](C)[C@@H](OC(=O)CCNCCNc2cc3c(=O)c(C(=O)O)cn(C4CC4)c3cc2Cl)[C@H](C)[C@@H](O[C@@H]2O[C@H](C)C[C@H](N(C)C)[C@H]2O)[C@](C)(OC/C=C/c2cccc3ncccc23)C[C@@H](C)NC(=O)[C@H](C)[C@@H](O)[C@]1(C)O,> 64,1,32,1,4,4,2,8,0.5,8,–
CC[C@H]1OC(=O)[C@H](C)[C@@H](OC(=O)CCNCCNc2cc3c(=O)c(C(=O)O)cn(C4CC4)c3cc2Cl)[C@H](C)[C@@H](O[C@@H]2O[C@H](C)C[C@H](N(C)C)[C@H]2O)[C@](C)(OC/C=C/c2ccc3ncccc3c2)C[C@@H](C)NC(=O)[C@H](C)[C@@H](O)[C@]1(C)O,> 64,≤ 0.125,4,0.25,0.25,0.25,0.25,–,≤ 0.125,4,Ratio ED50 (Staphylococcus aureus [10]): 2; ED50 (Staphylococcus aureus [11]): 12.8 mg/kg; ED50 (Streptococcus pneumoniae [12]): 15.1 mg/kg; Ratio ED50 (Streptococcus pneumoniae [13]): 2
CC[C@H]1OC(=O)[C@H](C)[C@@H](OC(=O)CCNCCNc2cc3c(=O)c(C(=O)O)cn(C4CC4)c3cc2Cl)[C@H](C)[C@@H](O[C@@H]2O[C@H](C)C[C@H](N(C)C)[C@H]2O)[C@](C)(OC/C=C/c2ccnc3ccccc23)C[C@@H](C)NC(=O)[C@H](C)[C@@H](O)[C@]1(C)O,> 64,0.5,32,0.5,1,4,0.5,4,0.25,16,–
CC[C@H]1OC(=O)[C@H](C)[C@@H](O[C@H]2C[C@@](C)(OC)[C@@H](O)[C@H](C)O2)[C@H](C)[C@@H](O[C@@H]2O[C@H](C)C[C@H](N(C)C)[C@H]2O)[C@](C)(O)C[C@@H](C)CN(C)[C@H](C)[C@@H](O)[C@]1(C)O [AZITHROMYCIN],> 64,≤ 0.125,> 64,1,4,1,> 64,> 64,≤ 0.125,1,"fraction unbound at 1 ug/ml [14]: 0.73; Ratio (Staphylococcus aureus [15]): 64; fraction unbound at 1 ug/ml [16]: 0.72; remaining at 1 h, 1 µM [17]: 100%; fraction unbound at 1 ug/ml [18]: 0.64; remaining at 1 h, 1 µM [19]: 100%; remaining at 1 h, 1 µM [20]: 100%"
CCOc1ccc2ccc(=O)oc2c1 [ETHOXYCOUMARIN],–,–,–,–,–,–,–,–,–,–,"remaining at 1 h, 1 µM [17]: 30%; remaining at 1 h, 1 µM [19]: 57%; remaining at 1 h, 1 µM [20]: 18%"
CC[C@H]1OC(=O)[C@H](C)C(=O)[C@H](C)[C@@H](O[C@@H]2O[C@H](C)C[C@H](N(C)C)[C@H]2O)[C@](C)(OC)C[C@@H](C)C(=O)[C@H](C)[C@H]2N(CCCCn3cnc(-c4cccnc4)c3)C(=O)O[C@]12C [TELITHROMYCIN],> 64,≤ 0.06,4,≤ 0.125,≤ 0.125,0.25,0.25,≤ 0.125,≤ 0.06,2,AUC(0-inf) [21]: 2730 ng·h/mL; bioavailability [22]: 33%; Cmax [23]: 340 ng/mL; fraction unbound at 1 ug/ml [14]: 0.41; Cmax [24]: 1850 ng/mL; Vd [25]: 5.6 L/kg; fraction unbound at 1 ug/ml [16]: 0.56; ED50 (Staphylococcus aureus [11]): 5 mg/kg; fraction unbound [26]: 0.56; clearance [27]: 42.5 mL/min/kg; AUC(0-inf) [28]: 3950 ng·h/mL; fraction unbound at 1 ug/ml [18]: 0.5; ED50 (Streptococcus pneumoniae [12]): 7.2 mg/kg; Tmax [29]: 2.3 h; half-life [30]: 102 min; CL free (Rattus norvegicus): 75.9 mL/min/kg

# Reference: ChEMBL document CHEMBL4041467, “Synthesis of novel 15-membered 8a-azahomoerythromycin A acylides: Consequences of structural modification at the C-3 and C-6 position on antibacterial activity” (Eur J Med Chem, 2017)
